Each molecule was assayed against full-length recombinant human FYN A (Homo sapiens (Human), UniProt P06241) (assay: ADP-Glo Kinase Assay of FYN kinase inhibition). Details: primary screen, initial compounds.
Format: biochemical
From the text: The chemical library was comprised of the SoftFocus ATP-competitive hinge binding compounds described by Harris, C. J., Hill, R. D., Sheppard, D. W., et al., The Design and Application of Target-Focused Compound Libraries. Combinatorial Chemistry and High Throughput Screening 14:521-31 (2011). The specific pharmacore chemistries included SFK52 comprising 6-[R2]-3-[R1]imidazo[1,2-b] pyridazine compounds, SFK33 comprising N-(3-[R2] imidazo [1,2-b] pyridazin-6-yl) [R1] amine compounds, SFK49 comprising N-(5-[R2] imidazo [2,1-b][1,3,4] thiadiazol-2-yl)[R1]-amine compounds, SFK 40 comprising 5-[R2]-3-[R1] pyridin-2-amine compounds, SFK43 comprising 6-[R2]-3-[R1]imidazo[1,2-a]pyrazine compounds, and SFK63. The chemical structures of the initial 600 potential kinase inhibitors are presented in Table 3, with those chosen for additional analysis presented in Table 4. Comparison of the compounds presented in Table 1 and those of Tables 2, 3 and 4, illustrate the novelty of the chemical structures claimed herein.
FYN kinase (10 micrograms) was from the FYN A Kinase Enzyme System (V3571, Promega UK Ltd.), a full-length recombinant human FYN A containing an N-terminal GST tag of about 85 kDa, expressed by bacullovirus in […] insect cells, supplied at a concentration of 0.1 microgram/microliter in 5×reaction buffer. The FYN substrate, a 12 amino acid peptide of the sequence […], containing a single tyrosine phosphorylation site, was custom synthesized (Peptide Synthetics, Peptide Protein Research, Fareham, UK) and supplied as a 4 mg/ml aqueous solution. All other reagents were obtained from Sigma (Sigma-Aldrich, Gillingham, Dorset, UK), with the exception of UltraPure ATP (V9102, Promega UK Ltd.) and the ATP-competitive broad spectrum protein kinase inhibitor staurosporine (569397, Merck Millipore, Watford, Hertfordshire, UK), or as otherwise indicated.
The assay procedure determines the IC50 of each potential FYN kinase inhibitor by measuring the enzyme catalyzed ATP-dependent phosphorylation of the FYN substrate peptide. The ADP-Glo™ Kinase Assay is specifically designed to quantify kinase activity by measuring the ADP produced in the reaction The reaction buffer comprises 40 mM Tris.HCl (pH 7.5), 20 mM MgCl2, 0.1 mg/ml BSA and 5 microM DTT. Individual compounds within the chemical library were dissolved in DMSO at known concentrations. Briefly, 2.5 microliters of reaction buffer containing 3 picograms of FYN kinase and serial dilutions of each potential FYN kinase inhibitor (9 3-fold dilutions of a 10 micromolar top sample) are placed into each well of a 384 well microtiter plate and incubated at room temperature for 30 minutes. An additional 2.5 microliters of reaction buffer containing 100 picograms of the FYN substrate and 12.5 picomoles of ATP are then added to each well and the reaction carried out for 90 minutes at room temperature. The reactions are terminated by addition of 5 microliters of the ADP-Glo™ Reagent component of the ADP-Glo™ Kinase Assay kit to each well. The ADP-Glo™ Reagent comprises an ATP-dependent adenylate cyclase, an inorganic pyrophosphatase and an excess of staurosporine. The adenylate cyclase converts the remaining ATP to cAMP and pyrophospahte, the pyrophosphatase converts the pyrophosphate to phosphate and the staurosporine inhibits the activity of the FYN kinase, the net effect is to remove all residual ATP while preserving the ADP produced by FYN kinase. The terminated reactions are incubated for 40 minutes at room temperature, prior to addition of the Kinase Detection Reagent component of the ADP-Glo™ Kinase Assay kit to each well. The Kinase Detection Reagent comprises pyruvate kinase, phosphoenol pyruvate (PEP), luciferin and luciferase. The pyruvate kinase converts PEP to pyruvate and in the process generates ATP from the residual ADP present in the terminated reaction. […]

Chain of full-length recombinant human FYN A (P06241 whole entry): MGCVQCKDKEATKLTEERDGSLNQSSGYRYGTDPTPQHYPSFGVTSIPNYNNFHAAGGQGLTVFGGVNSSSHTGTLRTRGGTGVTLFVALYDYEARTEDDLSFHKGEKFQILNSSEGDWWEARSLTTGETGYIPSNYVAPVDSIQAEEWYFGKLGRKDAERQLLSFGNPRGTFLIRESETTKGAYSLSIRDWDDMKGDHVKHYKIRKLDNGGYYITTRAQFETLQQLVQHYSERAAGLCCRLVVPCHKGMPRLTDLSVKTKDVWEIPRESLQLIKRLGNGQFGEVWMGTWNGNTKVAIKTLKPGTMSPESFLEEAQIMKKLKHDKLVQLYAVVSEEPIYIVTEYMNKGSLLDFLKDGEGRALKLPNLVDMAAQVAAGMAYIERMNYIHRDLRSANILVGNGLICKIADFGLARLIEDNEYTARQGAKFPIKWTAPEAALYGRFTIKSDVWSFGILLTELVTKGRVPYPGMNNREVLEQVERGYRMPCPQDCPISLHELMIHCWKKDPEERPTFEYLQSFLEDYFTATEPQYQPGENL

| SMILES | IC50 |
| --- | --- |
| CCC(CO)Nc1cncc(-c2cc(C(C)C)ccc2OC)n1 (stereo not drawn) [035_0153_0286, 2-[[6-(5-isopropyl-2-methoxy-phenyl)pyrazin-2-yl]amino]butan-1-ol] | 11.8 µM |
| COc1ccc(-c2cncc(-c3ccc(O)c(OC)c3)n2)cc1 [035_0280_0314, 2-methoxy-4-[6-(4-methoxyphenyl)pyrazin-2-yl]phenol] | 5.18 µM |
| COc1cc(Nc2cncc(-c3cccc(NC(C)=O)c3)c2)cc(OC)c1OC [081_0087_0081, N-[3-[5-(3,4,5-trimethoxyanilino)-3-pyridyl]phenyl] acetamide] | 0.391 µM |
| COc1cccc(Cn2c(=O)[nH]c3ncc(-c4cc(OC)c(OC)c(OC)c4)nc32)c1 [170_4313_0087, 3-[(3-methoxyphenyl)methyl]-5-(3,4,5-trimethoxy-phenyl)-1H-imidazo[4,5-b]pyrazin-2-one] | 23.4 µM |
| CN(C)c1cccc(-c2cnc(Nc3ccc(N4CCOCC4)cc3)c3nccn23)c1 [184_0088_0135, 5-[3-(dimethyl-amino)phenyl]-N-(4-morpholino-phenyl) imidazo[1,2-a]pyrazin-8-amine] | 2.7 µM |
| COCCNc1ccc2ncc(-c3ccsc3)n2n1 [229_0033_0074, N-(2-methoxy-ethyl)-3-(3-thienyl)imidazo [1,2-b]pyridazin-6-amine] | 5.23 µM |
| COCCNc1ccc2ncc(-c3ccc(OC)c(OC)c3)n2n1 [229_0033_0079, 3-(3,4-dimethoxy-phenyl)-N-(2-methoxyethyl) imidazo[1,2-b]pyridazin-6-amine] | 1.55 µM |
| COCCNc1ccc2ncc(-c3ccc(F)cc3)n2n1 [229_0033_0339, 3-(4-fluoro-phenyl)-N-(2-methoxyethyl) imidazo[1,2-b]pyridazin-6-amine] | 4 µM |
| COc1cc(-c2cnc3ccc(NCc4ccco4)nn23)cc(OC)c1OC [229_0144_0086, N-(2-furylmethyl)-3-(3,4,5-trimethoxyphenyl) imidazo[1,2-b]pyridazin-6-amine] | 4.9 µM |
| O=C(O)c1ccc(-c2cnc3ccc(NCc4ccco4)nn23)cc1 [229_0144_0140, 4-[6-(2-furylmethyl-amino)imidazo[1,2-b]pyridazin-3-yl]benzoic acid] | 3.88 µM |
| COc1ccc(-c2cnc3ccc(NCc4ccco4)nn23)cc1 [229_0144_0280, N-(2-furyl-methyl)-3-(4-methoxyphenyl) imidazo[1,2-b]pyridazin-6-amine] | 3.68 µM |
| COc1cc(-c2cnc3ccc(NCc4cccs4)nn23)cc(OC)c1OC [229_0146_0087, N-(2-thienylmethyl)-3-(3,4,5-trimethoxyphenyl) imidazo[1,2-b]pyridazin-6-amine] | 3.1 µM |
| COc1ccc(-c2cnc3ccc(NCc4cccs4)nn23)cc1 [229_0146_0280, 3-(4-methoxyphenyl)-N-(2-thienylmethyl) imidazo[1,2-b]pyridazin-6-amine] | 5.39 µM |
| Oc1cccc(-c2cnc3ccc(NCc4cccs4)nn23)c1 [229_0146_0284, 3-[6-(2-thienylmethyl-amino)imidazo[1,2-b]pyridazin-3-yl]phenol] | 1.7 µM |
| OCc1ccc(-c2cnc3ccc(NCc4cccs4)nn23)cc1 [229_0146_0285, [4-[6-(2-thienylmethyl-amino)imidazo[1,2-b]pyridazin-3-yl]phenyl] methanol] | 1.09 µM |
| Nc1ccc(-c2cnc3ccc(NCc4cccs4)nn23)cc1 [229_0146_0333, 3-(4-amino-phenyl)-N-(2-thienylmethyl) imidazo[1,2-b]pyridazin-6-amine] | 5.42 µM |
| Fc1ccc(-c2cnc3ccc(NCc4cccs4)nn23)cc1 [229_0146_0339, 3-(4-fluoro-phenyl)-N-(2-thienylmethyl) imidazo[1,2-b]pyridazin-6-amine] | 3.28 µM |
| CC(=O)c1cccc(-c2cnc3ccc(NCc4cccs4)nn23)c1 [229_0146_4145, 1-[3-[6-(2-thienylmethyl-amino)imidazo[1,2-b]pyridazin-3-yl]phenyl] ethanone] | 0.441 µM |
| CCC(CO)Nc1ccc2ncc(-c3cc(OC)c(OC)c(OC)c3)n2n1 (stereo not drawn) [229_0153_0087, 2-[[3-(3,4,5-trimethoxy-phenyl)imidazo[1,2-b]pyridazin-6-yl]amino] butan-1-ol] | 1.28 µM |
| CCC(CO)Nc1ccc2ncc(-c3ccc(OC)cc3)n2n1 (stereo not drawn) [229_0153_0280, 2-[[3-(4-methoxyphenyl)imidazo[1,2-b]pyridazin-6-yl]amino] butan-1-ol] | 1.28 µM |
| CCC(CO)Nc1ccc2ncc(-c3ccc(CO)cc3)n2n1 (stereo not drawn) [229_0153_0285, 2-[[3-[4-(hydroxy-methyl)phenyl]imidazo[1,2-b]pyridazin-6-yl]amino]butan-1-ol] | 2.47 µM |
| CCC(CO)Nc1ccc2ncc(-c3ccc(OC)nc3)n2n1 (stereo not drawn) [229_0153_0311, 2-[[3-(6-methoxy-3-pyridyl)imidazo [1,2-b]pyridazin-6-yl]amino] butan-1-ol] | 2.37 µM |
| CCC(CO)Nc1ccc2ncc(-c3cccc(OC)c3)n2n1 (stereo not drawn) [229_0153_4140, 2-[[3-(3-methoxyphenyl)imidazo[1,2-b]pyridazin-6-yl]amino]butan-1-ol] | 1.55 µM |
| CCC(CO)Nc1ccc2ncc(-c3cccs3)n2n1 (stereo not drawn) [229_0153_4147, 2-[[3-(2-thienyl)imidazo [1,2-b]pyridazin-6-yl]amino] butan-1-ol] | 3.97 µM |

Next, values leading:

| IC50 | SMILES |
| --- | --- |
| 3.5 µM | COc1ccc(-c2cncc(-c3cccc(NC(C)=O)c3)n2)cc1 [035_0081_0280, N-[3-[6-(4-methoxyphenyl)pyrazin-2-yl]phenyl] acetamide] |
| 3.88 µM | CC(=O)Nc1cccc(-c2cncc(-c3cccc(O)c3)n2)c1 [035_0081_0284, N-[3-[6-(3-hydroxyphenyl)pyrazin-2-yl]phenyl] acetamide] |
| 15.3 µM | CCC(CO)Nc1cncc(-c2ccc(O)cc2)n1 (stereo not drawn) [035_0153_0080, 4-[6-[1-(hydroxymethyl)propylamino]pyrazin-2-yl]phenol] |
| 21.1 µM | CCC(CO)Nc1cncc(-c2ccc(N)cc2)n1 (stereo not drawn) [035_0153_0333, 2-[[6-(4-aminophenyl)pyrazin-2-yl]amino]butan-1-ol] |
| 6.68 µM | Nc1cccc(-c2cncc(NCc3ccccc3)n2)c1 [035_0232_0005, 6-(3-aminophenyl)-N-benzyl-pyrazin-2-amine] |
| 9.06 µM | COc1ccc(-c2cncc(-c3cccc(C(=O)NCCCN(C)C)c3)n2)cc1 [035_0280_0302, N-[3-(dimethylamino)propyl]-3-[6-(4-methoxyphenyl)pyrazin-2-yl]benzamide] |
| 1.78 µM | C[C@@H](c1ccccc1)n1c(=O)[nH]c2ncc(-c3cccc(C(=O)N(C)C)c3)nc21 [170_0148_0349, N,N-dimethyl-3-[2-oxo-3-[(1S)-1-phenylethyl]-1H-imidazo[4,5-b]pyrazin-5-yl]benzamide] |
| 6.38 µM | c1ccc(-c2cnc3ccc(NCc4ccco4)nn23)cc1 [229_0144_0061, N-(2-furylmethyl)-3-phenyl-imidazo[1,2-b]pyridazin-6-amine] |
| 1.79 µM | Nc1cccc(-c2cnc3ccc(NCc4cccs4)nn23)c1 [229_0146_0005, 3-(3-aminophenyl)-N-(2-thienyimethyl) imidazo[1,2-b]pyridazin-6-amine] |
| 2.95 µM | COc1cccc(-c2cnc3ccc(NCc4cccs4)nn23)c1 [229_0146_4140, 3-(3-methoxyphenyl)-N-(2-thienylmethyl) imidazo[1,2-b]pyridazin-6-amine] |
| 10.7 µM | COc1ccc(-c2cnc3ccc(NCc4cccc(Cl)c4)nn23)cc1 [229_0223_0280, N-[(3-chlorophenyl)methyl]-3-(4-methoxyphenyl) imidazo[1,2-b]pyridazin-6-amine] |
| 5.11 µM | OCc1cccc(-c2cnc3ccc(NCc4cccc(Cl)c4)nn23)c1 [229_0223_0291, [3-[6-[(3-chlorophenyl)methylamino]imidazo[1,2-b]pyridazin-3-yl]phenyl] methanol] |

Reference: patent US10688093B2, “Methods, compositions, and uses of novel Fyn kinase inhibitors” (priority 2015, dated 2020)
